Target: T1, renin (Homo sapiens, UniProt P00797)
T1 construct: This test measures the formation of angiotensin I in human plasma; from tissue; host or cells: human plasma
T1 sequence (P00797 67-406): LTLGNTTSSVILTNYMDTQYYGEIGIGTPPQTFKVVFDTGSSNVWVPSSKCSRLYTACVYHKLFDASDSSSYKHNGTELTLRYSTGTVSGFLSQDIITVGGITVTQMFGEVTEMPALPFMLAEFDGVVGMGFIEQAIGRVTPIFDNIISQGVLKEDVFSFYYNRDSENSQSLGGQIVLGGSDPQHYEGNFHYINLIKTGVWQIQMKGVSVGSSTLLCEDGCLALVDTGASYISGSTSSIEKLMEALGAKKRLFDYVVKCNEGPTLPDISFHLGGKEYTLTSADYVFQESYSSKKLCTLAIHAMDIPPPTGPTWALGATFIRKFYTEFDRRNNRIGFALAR
Test: formation of angiotensin I in human plasma (Nussberger et al.), radioimmunoassay
Type: biochemical
Conditions: angiotensin I determined by radioimmunoassay, read-out: IC50, inhibition of the formation of angiotensin I
Description: The effect of renin inhibitors is detected inter alia experimentally by means of in vitro tests where the reduction in the formation of angiotensin I is measured in various systems (human plasma, purified human renin together with synthetic or natural renin substrate). The following in vitro test of Nussberger et al. (1987) J. Cardiovascular Pharmacol., Vol. 9, pp. 39-44, is used inter alia. This test measures the formation of angiotensin I in human plasma. The amount of angiotensin I formed is determined in a subsequent radioimmunoassay. The effect of inhibitors on the formation of angiotensin I is tested in this system by adding various concentrations of these substances. The IC50 is defined as the concentration of the particular inhibitor which reduces the formation of angiotensin I by 50%. The compounds of the present invention show inhibitory effects in the in vitro systems at minimal concentrations of about 10^−6 mol/l to about 10^−10 mol/l.

Row | SMILES | IC50
1 | COCCCN1CCOc2ccc(CO[C@H]3CN[C@@H](Cc4nncn4C)C[C@@H]3c3ccc(COC[C@@H](C)COC)cc3)cc21 [Example 8, 6-[(3R,4R,6R)-4-[4-((S)-3-Methoxy-2-methyl-propoxymethyl)-phenyl]-6-(4-methyl-4H-[1,2,4]triazol-3-ylmethyl)-piperidin-3-yloxymethyl]-4-(3-methoxy-propyl)-3,4-dihydro-2H-benzo[1,4]oxazine] | 0.1 to 10 nM
2 | COCCCN1CCOc2ccc(CO[C@H]3CN[C@@H](CN4CCOCC4)C[C@@H]3c3ccc(COC[C@@H](C)COC)cc3)cc21 [Example 10, 6-{(3R,4R,6R)-4-[4-((S)-3-Methoxy-2-methyl-propoxymethyl)-phenyl]-6-morpholin-4-ylmethyl-piperidin-3-yloxymethyl}-4-(3-methoxy-propyl)-3,4-dihydro-2H-benzo[1,4]oxazine] | 0.1 to 10 nM

— patent US8022068B2, “Substituted piperidines as renin inhibitors” (Novartis AG, priority 2008, dated 2011)
